Publication PMC4721540, “Selective activators of protein phosphatase 5 target the auto-inhibitory mechanism” (Bioscience Reports, 2015)
Numbering of substitutions follows the chain as printed. Converted amounts (≈) assume the structure as drawn. “Also recorded” adds a separate entry of the source.

Columns and labels:
PPH-5 [1] = target: T1, PPH-5 (Caenorhabditis elegans, UniProt Q9NES8); experiment: pNPP phosphatase assay with nematode PPH-5; type: biochemical, C. elegans; settings: for fold activation / kcat: PPH-5 (C. elegans); for fold activation: based on kcat compared with PPH-5 basal activity; for activation of PPH-5 phosphatase activity: substances at 50 ng/ml, DMSO control; for kcat: 60 mM pNPP, in presence of compound
T1 construct: made in house
T1 sequence (Q9NES8 1-496): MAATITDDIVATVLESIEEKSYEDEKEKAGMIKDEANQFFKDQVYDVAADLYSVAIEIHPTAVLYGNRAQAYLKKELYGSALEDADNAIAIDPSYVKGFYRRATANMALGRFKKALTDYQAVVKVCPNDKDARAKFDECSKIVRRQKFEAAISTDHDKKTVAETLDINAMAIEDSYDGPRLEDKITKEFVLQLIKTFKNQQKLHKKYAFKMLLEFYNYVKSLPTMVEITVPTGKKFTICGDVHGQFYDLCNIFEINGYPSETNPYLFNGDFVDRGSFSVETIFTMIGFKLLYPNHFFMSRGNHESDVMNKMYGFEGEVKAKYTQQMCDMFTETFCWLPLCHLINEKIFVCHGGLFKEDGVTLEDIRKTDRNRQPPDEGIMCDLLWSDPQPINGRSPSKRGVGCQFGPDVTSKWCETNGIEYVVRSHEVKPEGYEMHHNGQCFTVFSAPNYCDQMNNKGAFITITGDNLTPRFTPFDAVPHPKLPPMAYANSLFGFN
Protocol: The compound library consisting of 10000 compounds (New Chemistry and Discovery Chemistry Collection, ChemDiv) was screened using a chromometric phosphatase assay with para-nitrophenyl phosphate (pNPP) as substrate. Phosphatase activity was determined by the conversion of pNPP to para-nitrophenole and absorption of the product at 410 nm (ε: 15100 cm^−1 M^−1). Assays were performed in 96-well plates in a PerkinElmer EnVision instrument with 50 nM of PPH-5. Reaction volume was 100 μl in a buffer of 40 mM HEPES, pH 7.5, 20 mM KCl, 5 mM MnCl2 and 1 mM DTT. The reaction was started by adding pNPP to a final concentration of 60 mM. The slope of the reaction was determined and deviations of >30% were considered potential hits leading to a collection of 76 initial compounds. […] These 76 compounds were maintained and rescreened individually in a Varian Cary 100 spectrophotometer (Agilent Technologies) in Hellma SUPRASIL precision quarz cells (10-mm path length) and 140 μl of reaction volumes. Finally, five compounds were obtained as reproducible activators and selected for further characterization.
(§1) Phosphatase assays for characterization of PP5 and PPH-5 properties were performed in 40 mM HEPES/KOH, 20 mM KCl, 5 mM MnCl2, 1 mM DTT, pH 7.5 and 60 mM pNPP at 20°C if not indicated otherwise. Phosphatase concentrations ranged from 50 to 500 nM in the assay. If indicated, the CeHsp90/DAF-21 peptide AEEDASRMEEVD was supplemented in the assay at a concentration of 60 μM. […] These concentrations were 70 μM for P5SA-1, 140 μM for P5SA-2, 50 μM for P5SA-3, 100 μM for P5SA-4 and 45 μM for P5SA-5.

PP5 = target: T2, PP5 (Rattus norvegicus, UniProt P53042); experiment: pNPP phosphatase assay with rat PP5; type: biochemical, R. norvegicus; settings: for fold activation: PP5 (R. norvegicus)
T2 construct: His tag (inferred from pET28 vector and HisTrap purification); made in house; host or cells: E. coli BL21-CodonPlus (DE3)-RIL
T2 sequence (P53042 1-499): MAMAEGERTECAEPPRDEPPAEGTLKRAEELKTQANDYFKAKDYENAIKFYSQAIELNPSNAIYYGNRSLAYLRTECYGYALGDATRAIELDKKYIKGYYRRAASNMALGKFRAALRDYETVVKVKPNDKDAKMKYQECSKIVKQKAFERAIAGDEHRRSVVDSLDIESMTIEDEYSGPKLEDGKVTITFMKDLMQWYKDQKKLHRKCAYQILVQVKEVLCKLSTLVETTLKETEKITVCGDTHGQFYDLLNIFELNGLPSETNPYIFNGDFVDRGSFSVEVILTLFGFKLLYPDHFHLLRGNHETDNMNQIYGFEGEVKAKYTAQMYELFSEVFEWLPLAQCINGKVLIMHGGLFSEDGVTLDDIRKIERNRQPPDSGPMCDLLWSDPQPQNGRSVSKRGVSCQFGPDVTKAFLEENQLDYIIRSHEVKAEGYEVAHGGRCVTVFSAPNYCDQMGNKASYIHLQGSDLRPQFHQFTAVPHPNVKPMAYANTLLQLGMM
Protocol: as §1

physchem = type: physicochemical; settings: 20 °C, pH 7.5, aqueous buffer
Protocol: as §1

PP5 428–430 = target: T3, PP5 428–430 (Rattus norvegicus, UniProt P53042, E428A/K430A/V429A); experiment: pNPP phosphatase assay with PP5 428–430 mutant; type: biochemical; settings: compound at 100 μM
T3 construct: made in house; host or cells: E. coli BL21-CodonPlus (DE3)-RIL
T3 sequence (P53042 1-499 E428A/V429A/K430A): T2 sequence (P53042 1-499) with E428A, V429A, K430A
Protocol: (§2) Cloning and purification of PPH-5 (protein phosphatase homologue), CeHsp90/DAF-21 (abnormal DAuer formation), YFP-CeHsp90/DAF-21, BAG-1 (Bcl-2 associated athanogene-1), DNJ-13 (DNJ-13 homologue) and CeHsc70 (C. elegans heat shock cognate 70) were performed as described before. The human phosphatases PP1, PP2A and PP2B/PP3 were purified as described. The expression clones of rat PP5, PP5-ΔN165 (166–499) and PP5-ΔC8 (1–491) were generated by PCR and insertion of the DNA into the pET28 vector. Expression clones of PP5 428–430, which contains A^428-A^429-A^430 instead of E^428-V^429-K^430 and PP5 […], which contains A^428-A^429-A^430 instead of E^428-V^429-K^430 and A^455-G^456-A^457 instead of M^455-G^456-N^457, were also generated by PCR using primer sequences containing the modified codons. PCR-products were inserted into the pET28b expression plasmid (Merck) and verified by DNA sequencing (GATC Biotech). Proteins were expressed in BL21-CodonPlus (DE3)-RIL bacteria (Stratagene). Bacterial cultures were grown to a D600 of 0.8 and induced with 1 mM IPTG. Cells were disrupted using a cell disruption machine (IUL Instruments) and the lysate was loaded on to a HisTrap FF column (GE Healthcare). […] Protein purity was assessed by SDS/PAGE and the molecular mass was determined on an UltraFlex III MALDI-TOF/TOF mass spectrometer (Bruker). […]

PP5 428–430/455–457 = target: T4, PP5 428–430/455–457 (Rattus norvegicus, UniProt P53042, E428A/K430A/M455A/N457A/V429A); experiment: pNPP phosphatase assay with PP5 428–430/455–457 mutant; type: biochemical; settings: compound at 100 μM
T4 construct: made in house; host or cells: E. coli BL21-CodonPlus (DE3)-RIL
T4 sequence (P53042 1-499 E428A/V429A/K430A/M455A/N457A): T2 sequence (P53042 1-499) with E428A, V429A, K430A, M455A, N457A
Protocol: as §2

PPH-5 [2] = target: T1, PPH-5; experiment: Relaxation-edited NMR binding to PPH-5; parameters: species or system C. elegans; settings: 10 μM PPH-5, phosphate buffer, 20°C, no substrate
Protocol: NMR experiments were performed on an 800 MHz spectrometer (Bruker) with cryoprobe. The measurements were done in ^2H2O with phosphate buffer (4 mM KH2PO4, 16 mM Na2HPO4, 120 mM NaCl, pH 7.4) and 1%–5% of d6-DMSO. P5SA-2 without protein was recorded in high sensitivity experiments with a high number of scans. The CPMG sequence with an additional Watergate to suppress residual water was used. The T2 filtering time was set to 400 ms to suppress signals from slowly tumbling molecules. Peak intensities were normalized by comparing residual DMSO peaks. PPH-5 was added as indicated.

[3] = target: T5, PPH-5 - CeHsp90/DAF-21 complex (Caenorhabditis elegans, UniProt Q9NES8); experiment: Analytical ultracentrifugation of PPH-5/YFP-Hsp90 complex formation; type: binding, C. elegans; settings: peptide 60 μM
T5 construct: made in house
Protocol: Binding of Hsp90 to PPH-5 was analysed by analytical ultracentrifugation with fluorescence detection as described before. Experiments were performed in a Beckman ProteomeLab XL-A analytical ultracentrifuge (Beckman) equipped with an AU-FDS detector (Aviv Biomedical). Analytical ultracentrifugation (AUC) runs were performed in 40 mM HEPES/KOH, pH 7.5, 20 mM KCl, 1 mM DTT. The concentration of labelled YFP–Hsp90 was 300 nM and 3 μM of PPH-5 were added to form a complex with YFP–Hsp90. Where indicated 60 μM of the C-terminal Hsp90/DAF-21 peptide (AEEDASRMEEVD) was present in the sample. Centrifugation was performed at 20°C and 142000 g for 12 h. Scans were recorded every 90 s. Data analysis was performed using a dc/dt approach according to Stafford. The dc/dt plots were fit to Gaussian functions in order to obtain the s20,w values of the respective species as described previously. P5SAs were added as indicated.

Row | fold activation (PP5; compound at 30 μM (solubility limited)) | effect on complex formation between PPH-5 and YFP–Hsp90 ([3]; 300 nM YFP–Hsp90, 3 μM PPH-5, P5SAs at maximal soluble concentration) | sedimentation coefficient s20,w of YFP–Hsp90 with PPH-5 in presence of substance ([3]; complex without substance 8.9 S, YFP–Hsp90 alone 6.8 S) | Compound | fold activation (PPH-5 [1]) | activation of PPH-5 phosphatase activity (PPH-5 [1]) | solubility (physchem) | kcat (PPH-5 [1]) | influence of MEEVD-containing peptide on apparent affinity of activator (PPH-5 [1]; PPH-5, 60 μM MEEVD-containing peptide) | fold activation (PP5; compound at 100 μM) | stimulation of full-length rat PP5 at lower concentration (PP5; compound at 10 μM) | stimulation of PP5 428–430 (single-loop mutant) (PP5 428–430) | stimulation of PP5 428–430/455–457 (PP5 428–430/455–457) | direct binding to PPH-5 by NMR (PPH-5 [2])
1 | 2.9 | – | – | CN1CCc2c(sc(-n3cccc3)c2CNC(=O)NC23CC4CC(CC(C4)C2)C3)C1 [P5SA-3] | 4.0 | activate PPH-5 | 50 µM (≈ 21.2 µg/mL) | – | – | – | – | – | – | –
2 | – | – | – | CNC(=O)c1c(NC(=O)COCC(=O)Nc2sc3c(c2C(=O)NC)CCC3)sc2c1CCC2 [P5SA-5] | 8.4 | activate PPH-5 | 45 µM (≈ 22.1 µg/mL) | 5.22 ± 0.67 s⁻¹ | only a minor influence on the apparent affinity | 8.6 | effect at the lower concentration was detectable | did not stimulate the catalytic activity | could not detect stimulation; also recorded: did not stimulate the catalytic activity | –
3 | – | – | – | FC(F)(F)c1c2c(nc3c(-c4ccc(Cl)cc4)cnn13)CCC2 [P5SA-1] | 3.7 | activate PPH-5 | 70 µM (≈ 23.6 µg/mL) | 2.28 ± 0.28 s⁻¹ | – | 4.1 | – | – | – | –
4 | – | – | – | O=c1cc2nc(-c3ccc(F)cc3)nc(SCc3ccc(Br)cc3)n2[nH]1 [P5SA-4] | 7.8 | activate PPH-5 | 100 µM (≈ 43.1 µg/mL) | 4.85 ± 0.43 s⁻¹ | – | 3.0 | – | – | – | –
5 | – | – | – | COc1ccc(-c2nc(Cc3ccc(Cl)cc3)no2)cc1OC [P5SA-2] | 3.2 | activate PPH-5 | 140 µM (≈ 46.3 µg/mL) | 1.99 ± 0.43 s⁻¹ | – | 3.9 | – | no activation could be achieved | could not observe any stimulation | confirms binding of P5SA-2 to PPH-5
6 | – | complex formation is strongly reduced | 7.6 S | AEEDASRMEEVD [MEEVD peptide, C-terminal Hsp90/DAF-21 peptide from Biomatik, used as control to disrupt the PPH-5–Hsp90 complex] | – | – | – | – | – | – | – | – | – | –
